Laboratory results: publication PMC9496151, “Expression and Function of ABC Transporters in Human Alveolar Epithelial Cells” (Biomolecules, 2022)
Each block holds one molecule with its values, some of them ahead of it.

Tests used:
MDR1 [1] = assay: Bidirectional transport of Rhodamine123 (MDR1 activity) in EpiAlveolar; assay type: in vitro ADME, human
Procedure: (§1) The activity of ABC transporters was determined by measuring the apical-to-basolateral (AB) and basolateral-to-apical (BA) fluxes of specific substrates. To this aim, cell monolayers were washed twice in HBSS and equilibrated for 30 min in the same solution (pH 7.4, 37 °C). […] After 0, 30, 60, and 120 min, aliquots of the solution were collected from the opposite chamber (receiver chamber) and replaced with the same volume of HBSS. The fluxes were determined by reading fluorescence with an EnSpire® Multimode Plate Reader (Perkin Elmer), or radioactivity with MicroBeta^2 liquid scintillation spectrometer. The apparent permeability coefficient (Papp) was calculated from the data obtained.
(§2) Efflux ratio (ER) was calculated as the ratio between Papp measured for BA and AB fluxes, while uptake ratio (UR) was the ratio between Papp measured for AB and BA fluxes.

MDR1 [2] = assay: Bidirectional transport of Rhodamine123 (MDR1 activity) in hAELVi; assay type: in vitro ADME, human
Procedure: as §1, §2

ABCG2/BCRP [3] = assay: Bidirectional transport of Bodipy FL Prazosin (BCRP activity) in EpiAlveolar; assay type: in vitro ADME, human
Procedure: as §1, §2

ABCG2/BCRP [4] = assay: Bidirectional transport of Bodipy FL Prazosin (BCRP activity) in hAELVi; assay type: in vitro ADME, human
Procedure: as §1, §2

[5] = 10 µM PSC833, 1 µM Rhodamine123, AB and BA

Procedure for EpiAlveolar™: The paracellular and transcellular permeability of cell monolayers to solutes was assessed by monitoring the apical-to-basolateral fluxes of ^14C-mannitol and ^3H-propranolol, respectively. In detail, cell monolayers were washed and incubated for 30 min in Hank’s Balanced Salt Solution (HBSS, pH 7.4, 37 °C); HBSS containing ^14C-mannitol (1 µCi/mL, corresponding to 20 µM) or ^3H-propranolol (3 µCi/mL; 10 µM) was then added to the apical side. Aliquots of medium were collected from the basolateral compartment after 0, 30, 60, and 120 min and replaced with fresh HBSS; radioactivity in each sample was measured with a MicroBeta^2 liquid scintillation spectrometer (Perkin Elmer, Italy) and employed to calculate the apparent permeability coefficient (Papp).
The apparent permeability coefficient (Papp) of the tracer molecules was calculated according to the equation:Papp = (dQ⁄dt)⁄(A×C0×60) where dQ/dt is the transport rate of the tracer, A is the filter surface area, C0 is the initial concentration of the tracer in the donor chamber, and 60 is the conversion from minutes to seconds.

SMILES: C/C=C/C[C@@H](C)C(=O)[C@H]1C(=O)N[C@@H](C(C)C)C(=O)N(C)CC(=O)N(C)[C@@H](CC(C)C)C(=O)N[C@@H](C(C)C)C(=O)N(C)[C@@H](CC(C)C)C(=O)N[C@@H](C)C(=O)N[C@H](C)C(=O)N(C)[C@@H](CC(C)C)C(=O)N(C)[C@@H](CC(C)C)C(=O)N(C)[C@@H](C(C)C)C(=O)N1C [PSC833]
- effect of inhibitor on Papp of Rhodamine123 (MDR1 [1]; [5]): not modified
- effect of inhibitor on Papp of Rhodamine123 (MDR1 [2]; [5]): not modified

SMILES: COc1ccc2c3c([nH]c2c1)[C@H](CC(C)C)N1C(=O)[C@H](CCC(=O)OC(C)(C)C)NC(=O)[C@@H]1C3 [Ko143]
- inhibition of Bodipy™ FL Prazosin fluxes (ABCG2/BCRP [3]; 20 µM Ko143): no inhibition
- inhibition of Bodipy™ FL Prazosin fluxes (ABCG2/BCRP [4]; 20 µM Ko143): no inhibition

SMILES: Cc1nc(-c2ccc(OCC(C)C)c(C#N)c2)sc1C(=O)O [febuxostat]
- inhibition of Bodipy™ FL Prazosin fluxes (ABCG2/BCRP [3]; 50 µM Febuxostat): no inhibition
- inhibition of Bodipy™ FL Prazosin fluxes (ABCG2/BCRP [4]; 50 µM Febuxostat): no inhibition

SMILES: OC[C@@H](O)[C@@H](O)[C@H](O)[C@H](O)CO [mannitol]
- paracellular permeability (Papp), apical-to-basolateral flux (hAELVi): slight not significant difference
- paracellular permeability (Papp), apical-to-basolateral flux (EpiAlveolar™): more permeable

Second part, the molecule after the results:

- Papp, AB versus BA fluxes (MDR1 [1]; 1 µM Rhodamine123): comparable for AB and BA fluxes
- efflux ratio (ER) versus uptake ratio (UR) (MDR1 [1]; 1 µM Rhodamine123): comparable values
- Papp, AB versus BA fluxes (MDR1 [2]; 1 µM Rhodamine123): comparable for AB and BA fluxes
- efflux ratio (ER) versus uptake ratio (UR) (MDR1 [2]; 1 µM Rhodamine123): comparable values
SMILES: COC(=O)c1ccccc1-c1c2ccc(=N)cc-2oc2cc(N)ccc12 [Rhodamine123]

- transcellular permeability (Papp), apical-to-basolateral flux (hAELVi): comparable permeability
- transcellular permeability (Papp), apical-to-basolateral flux (EpiAlveolar™): comparable permeability
SMILES: CC(C)NCC(O)COc1cccc2ccccc12 (centres unmarked) [propranolol]
